Where a SMILES comes first, the peptide text is derived from it. Bridges are numbered along the chain shown (N, C = ends). [ ]: non-standard residue; d: D form. Tic = O=C(O)[C@@H]1Cc2ccccc2CN1; Pen = CC(C)(S)[C@H](N)C(=O)O; Mpa = O=C(O)CCS
Assays:
[1] = Parathyroid hormone-induced hypercalcemia in mice; format: in vivo, Swiss-Webster mice; settings: parathyroidectomized mice, 4 hr i.v. peptide infusion, FIG. 9
Excerpt: Parathyroid hormone (PTH) activates osteoclasts, which are involved in bone resorption. Associated with the increased osteoclast activity is an increase in serum calcium. The PTH-induced hypercalcemia assay measures the level of serum calcium, which is an indication of bone resorption in a subject (Fischer et al., Endocrinology 132:1411-1413 (1993), which is incorporated herein by reference).
Swiss-Webster mice, which had been parathyroidectomized two weeks prior to beginning the assay, were obtained from Taconic Lab Animals and Services (Germantown N.Y.). Femoral vein catheters (PE-50 fused with PE10 polyethylene tubing; Becton Dickinson; Parsippany, N.J.) were installed in the mice, flushed and locked with heparinized saline (1:10), sutured to adjacent muscle and internalized within the inguinal space of the incision before closing the incision with wound clips. […]
The experiment was initiated by feeding the mice a calcium-deficient diet overnight, then injecting the mice the following morning with a bolus of 0.2 mg PTH/kg (hPTH 1-34; Bachem; Torrance Calif.), intravenously. […] Various doses of a peptide or vehicle were infused into an animal for 4 hr, then ionized serum calcium again was measured. […] Serum calcium measurements were expressed as the difference between the value 30 min before the PTH pulse and 4 hr after peptide infusion was started. […]

αV β3 integrin receptor [2] = test: Series of in vitro assays of Example II for potency and selectivity (FIG. 2); settings: for receptor selectivity classification / potency classification: summary of assays; for activity (FIG. 2): minimal-element peptides
Excerpt: Such peptides can include, for example, peptides within the pharmacophore groups exemplified herein or peptides within other pharmacophore groups. […] The selectivity of a peptide for an integrin receptor involved in osteoclast binding to bone can be determined, for example, using the integrin receptor assays and cell attachment and detachment assays described herein.
Comparison of the IC50 values generated using the JY cell assay and the αV β3 ELISA, which measure binding of the αV β3 receptor involved in osteoclast binding to bone, with the αV β5 and α5 β1 receptor-specific ELISAs, which represent receptors that likely are not involved in osteoclast attachment, provides insight into the receptor selectivity of the peptides.

[3] = test system: platelet αIIb β3 integrin receptor; test: Platelet aggregation assay; format: cell-based; settings: ADP-induced, platelet-rich plasma from heparinized blood; read-out: IC50 inhibiting platelet aggregation
Experimental: This example provides a method for performing a platelet aggregation assay, which is a measure of peptide binding to the platelet αIIb β3 integrin receptor.
Platelet-rich plasma (PRP) was prepared fresh from heparinized whole blood. 0.6 ml PRP was placed in a 1.5 ml microcentrifuge tube and centrifuged for 4 min at 14,000×g. Following centrifugation, 0.5 ml supernatant (platelet poor plasma; PPP) was transferred to a 1 ml silicon coated aggregometer tube (Chrono-Log Corp.; Havertown Pa.) and placed in the PPP slot of a Chrono-Log Model 400VS aggregometer (see Tschopp et al., Thromb. Haem. 72:119-124 (1994), which is incorporated herein by reference).
Platelet concentration of the PRP sample was determined using a cell counter and the sample was diluted with homologous PPP to obtain 300,000 platelets/μl. 0.5 ml of the diluted PRP was placed in an aggregometer tube with a stir bar and incubated for 5 min at 37° C. without stirring. The tube was transferred to the PRP slot in the aggregometer and the sample was stirred at 1200 rpm for 5-10 min at 37° C. […]
Platelet aggregation was initiated by adding adenosine diphosphate (ADP) to a concentration of 10 μM. Platelet aggregation was measured in 2 mm units from baseline (before ADP addition) to response at two min from the time of ADP addition or maximal response (if before 2 min), whichever is larger. […]

chick osteoclasts = test: Chick cell detachment assay (osteoclasts vs total cells); format: cell-based; settings: FIG. 5, serum-coated plates
Experimental: Peptides were evaluated for their ability to detach osteoclasts from a matrix consisting of serum-coated microtiter plates.
Briefly, chick long bones (femur and tibia) were dissected free of soft tissue and minced in prewarmed minimum essential medium (MEM, pH 7.2; Irvine Scientific; Irvine, Calif.) with Earl's salts, supplemented with 10% heat-inactivated fetal calf serum (FCS) and 200 mM glutamine and containing 100 μg/ml streptomycin and 100 IU/ml penicillin. Cells were removed from bone fragments by vigorous shaking in a capped centrifuge tube. Large particulate material was allowed to settle prior to removal of the cell suspension. After repeated agitation of the cells with a large transfer pipette, 100 μl aliquots of cells were added in triplicate to Corning 96 well microtiter plates that had been preincubated for 1 hr with 100 μl of MEM/FCS media.
The cells were incubated for 90 min at 37° C. in an atmosphere containing 10% CO2. Following incubation, the cell layers were carefully washed 2× with 200 μl sterile PBS, then 100 μl of fresh MEM/FCS was added. Peptides were diluted in the same medium and added to each well. The cells were incubated overnight as described above. […] 5 min using 0.1% crystal violet and multinucleated osteoclasts were counted by light microscopy. […]

rat osteoclasts = test: Rat osteoclast attachment assay compared with MG63/NRK cell attachment; format: cell-based; settings: FIGS. 7 and 8, FCS substrate
Experimental: To determine the effect of a peptide on the attachment of rat osteoclasts in vitro, 100 μl aliquots of the rat pup bone cell suspension described in Example II.B.2., above, were added in triplicate to 96 well "MAXISORP" plates coated with specific substrates or with FCS. Substrate coated plates were used to determine the ability of peptides to inhibit attachment or induce detachment of an osteoclast from a ligand such as vitronectin, fibronectin, osteopontin or collagen I (Collaborative Research), which are ligands present in bone. Substrates were added to 96 well plates (50 μl of a 5-10 μg/ml solution in sodium carbonate, pH 9.5) and incubated for 2 hr at 37° C. For FCS control wells, 100 μl 10% FCS was added. Wells were aspirated, then washed 2× with PBS and blocked with 1% bovine serum albumin in PBS for 2 hr at 37° C. Wells were aspirated and washed again 2× with PBS. Cells were seeded in duplicate at 4×10^4 cells/well. […]
Following incubation, the medium and nonadherent cells were removed by aspiration from each well. […] Adherent osteoclasts were counted by light microscopy. […]
MG63 and NRK cell lines were purchased from ATTC (Rockville Md.). […] Following staining, the stain was extracted with 20% acetic acid and the OD562 of the extracted stain was determined. […]
Selectivity of a peptide can be determined by comparing the results of FIGS. 7 and 8 (see, also FIG. 2).

αV β3 integrin receptor [4] = settings: rabbit, in vivo; cited from earlier work

CC(C)[C@@H]1NC(=O)[C@H](CC(=O)O)NC(=O)[C@H](CC(=O)O)NC(=O)CNC(=O)[C@H](CCCNC(=N)N)NC(=O)CCSSC[C@@H](C(N)=O)NC1=O [compound 191] ([Mpa]RGDDVC-NH2; disulfide 1-7)
PTH-induced rise in serum ionized calcium [1]: decreased the PTH-induced rise in serum ionized calcium in a dose responsive manner

CC(=O)N[C@H]1CSSC(C)(C)[C@@H](C(N)=O)NC(=O)[C@@H]2CCCN2C(=O)[C@H](CC(N)=O)NC(=O)[C@H](CC(=O)O)NC(=O)CNC(=O)[C@H](CCCNC(=N)N)NC1=O [compound 228] (Ac-CRGDNP[Pen]-NH2; disulfide 1-7)
receptor selectivity classification (αV β3 integrin receptor [2]): particularly receptor selective

CC(=O)N[C@H]1CSSC[C@@H](C(N)=O)NC(=O)[C@@H]2Cc3ccccc3CN2C(=O)[C@H](CO)NC(=O)[C@H](CC(=O)O)NC(=O)CNC(=O)[C@H](CCCNC(=N)N)NC1=O [compound 812, Ac-CRGDS(Tic)C-NH2] (Ac-CRGDS[Tic]C-NH2; disulfide 1-7)
activity (FIG. 2) (αV β3 integrin receptor [2]): demonstrate activity | potency classification (αV β3 integrin receptor [2]): particularly potent

COc1ccc(C[C@@H]2NC(=O)[C@H](CC(=O)O)NC(=O)CNC(=O)[C@H](CCCNC(=N)N)NC(=O)CC[C@@H](C(N)=O)NC(=O)[C@H](CCCNC(=N)N)NC2=O)cc1 [compound 940, RGD(YOMe)RE-NH2]
IC50 [3]: 820 nM

CC(=O)N[C@@H]1C(=O)N[C@@H](Cc2ccccc2)C(=O)N[C@@H](C)C(=O)N[C@@H](CCCNC(=N)N)C(=O)NCC(=O)N[C@@H](CC(=O)O)C(=O)N[C@@H](CC(N)=O)C(=O)N2CCC[C@H]2C(=O)N[C@H](C(N)=O)CSSC1(C)C [peptide 214] (Ac-[Pen]FARGDNPC-NH2; disulfide 1-9)
potency classification (αV β3 integrin receptor [2]): particularly potent

CC(C)[C@@H]1NC(=O)[C@H](CC(=O)O)NC(=O)[C@H](CC(=O)O)NC(=O)CNC(=O)[C@H](CCCNC(=N)N)NC(=O)CC[C@@H](C(N)=O)NC1=O [peptide 386, RGDDVE-NH2] (RGDDVE-NH2; lactam N-6)
selective detachment of osteoclasts compared to other cell types (chick osteoclasts): caused selective detachment of osteoclasts as compared to other cell types | activity (FIG. 2) (αV β3 integrin receptor [2]): demonstrate activity | receptor selectivity classification (αV β3 integrin receptor [2]): particularly receptor selective | PTH-induced rise in serum ionized calcium [1]: relatively low level of serum calcium | selectivity: osteoclast attachment versus MG63 or NRK attachment (rat osteoclasts): highly active on osteoclast attachment but were less active on MG63 or NRK attachment

G(Pen)GRGDSPCA
neointimal hyperplasia (αV β3 integrin receptor [4]): can inhibit neointimal hyperplasia

From patent publication US5807819A, “Peptides useful for altering bone resorption” (priority 1995, dated 1998)
